# According to ChEMBL document CHEMBL2074008, “Structural determinants of P-glycoprotein-mediated transport of glucocorticoids” (Pharm Res, 2003):
# Biological target: ATP-dependent translocase ABCB1 (Homo sapiens, UniProt P08183)
# Assay: TP_TRANSPORTER: transepithelial transport in MDR1-expressing LLC-PK1 cells
# Type: functional, cell-based
# Settings: pig
# Sequence of ATP-dependent translocase ABCB1 (P08183 whole entry): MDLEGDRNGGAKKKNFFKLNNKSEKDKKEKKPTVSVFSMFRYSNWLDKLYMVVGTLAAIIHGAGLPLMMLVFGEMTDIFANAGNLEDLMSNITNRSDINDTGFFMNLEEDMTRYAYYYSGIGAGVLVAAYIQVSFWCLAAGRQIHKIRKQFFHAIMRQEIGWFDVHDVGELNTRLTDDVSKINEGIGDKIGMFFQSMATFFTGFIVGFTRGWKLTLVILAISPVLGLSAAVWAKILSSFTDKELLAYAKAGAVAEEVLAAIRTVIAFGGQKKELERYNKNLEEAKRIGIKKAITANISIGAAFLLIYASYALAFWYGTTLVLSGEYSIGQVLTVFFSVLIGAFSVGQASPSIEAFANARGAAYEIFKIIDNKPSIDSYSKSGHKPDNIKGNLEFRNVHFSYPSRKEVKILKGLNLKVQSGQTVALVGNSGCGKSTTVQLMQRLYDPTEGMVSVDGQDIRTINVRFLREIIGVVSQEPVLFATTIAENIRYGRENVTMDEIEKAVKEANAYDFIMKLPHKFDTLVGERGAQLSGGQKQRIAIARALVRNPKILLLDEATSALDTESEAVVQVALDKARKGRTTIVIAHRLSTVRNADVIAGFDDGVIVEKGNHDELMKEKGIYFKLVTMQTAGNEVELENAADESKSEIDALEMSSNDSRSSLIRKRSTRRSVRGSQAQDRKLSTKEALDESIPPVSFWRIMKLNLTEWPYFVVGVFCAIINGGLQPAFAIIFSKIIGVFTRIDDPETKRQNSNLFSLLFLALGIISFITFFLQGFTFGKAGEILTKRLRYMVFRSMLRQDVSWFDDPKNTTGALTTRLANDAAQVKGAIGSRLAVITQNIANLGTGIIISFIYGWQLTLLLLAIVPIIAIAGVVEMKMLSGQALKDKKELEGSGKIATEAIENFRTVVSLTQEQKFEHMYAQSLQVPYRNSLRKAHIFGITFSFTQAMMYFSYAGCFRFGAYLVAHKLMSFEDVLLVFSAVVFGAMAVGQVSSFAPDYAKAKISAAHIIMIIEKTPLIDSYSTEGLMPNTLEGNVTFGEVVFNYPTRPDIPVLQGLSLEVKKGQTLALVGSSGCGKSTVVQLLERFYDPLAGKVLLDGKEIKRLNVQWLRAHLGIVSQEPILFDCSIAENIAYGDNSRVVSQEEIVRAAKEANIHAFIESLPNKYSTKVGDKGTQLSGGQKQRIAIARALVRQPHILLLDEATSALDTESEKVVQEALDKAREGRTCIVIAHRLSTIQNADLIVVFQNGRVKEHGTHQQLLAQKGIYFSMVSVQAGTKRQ
row,Activity,Compound
1,substrate [+],C[C@H]1C[C@@H]2[C@H]([C@@H](O)C[C@@]3(C)[C@H]2CC[C@]3(O)C(=O)CO)[C@@]2(C)C=CC(=O)C=C12 [METHYLPREDNISOLONE]
2,substrate [+],C[C@]12C=CC(=O)C=C1CC[C@@H]1[C@@H]2[C@@H](O)C[C@@]2(C)[C@H]1CC[C@]2(O)C(=O)CO [PREDNISOLONE]
3,substrate [+],C[C@]12C=CC(=O)C=C1CC[C@@H]1[C@@H]2C(=O)C[C@@]2(C)[C@H]1CC[C@]2(O)C(=O)CO [PREDNISONE]

# Continued, compound first:
row,Compound,Activity
1,C[C@]12CCC(=O)C=C1[C@H](O)C[C@@H]1[C@@H]2[C@@H](O)C[C@@]2(C)[C@H]1CC[C@]2(O)C(=O)CO,substrate [+]
2,C[C@]12CCC(=O)C=C1[C@@H](O)C[C@@H]1[C@@H]2[C@@H](O)C[C@@]2(C)[C@H]1CC[C@]2(O)C(=O)CO,substrate [+]
3,C[C@H]1C[C@H]2[C@@H]3CCC4=CC(=O)C=C[C@]4(C)[C@@]3(F)[C@@H](O)C[C@]2(C)[C@@]1(O)C(=O)CO [BETAMETHASONE],substrate [+]
4,C[C@]12CCC(=O)C=C1CC[C@@H]1[C@@H]2C(=O)C[C@@]2(C)[C@H]1CC[C@]2(O)C(=O)CO [CORTISONE],substrate [+]
5,C[C@@H]1C[C@H]2[C@@H]3CCC4=CC(=O)C=C[C@]4(C)[C@@]3(F)[C@@H](O)C[C@]2(C)[C@@]1(O)C(=O)CO [DEXAMETHASONE],substrate [+]
6,C[C@]12CCC(=O)C=C1CC[C@@H]1[C@@H]2[C@@H](O)C[C@@]2(C)[C@H]1CC[C@]2(O)C(=O)CO [HYDROCORTISONE],substrate [+]
